Measured values taken from US8183001B2 (priority 2006, dated 2012).

What was measured:
Format in all cases: cell-based, C. elegans
X(I265S, Q259N) [1] = target: X(I265S, Q259N) (Caenorhabditis elegans, UniProt G5ECD3, I262F/I265S/M258L/N305R/S264A/T257F/V261F); details: X(I265S, Q259N); at EC50 GABA
Experimental: (§1) Electrophysiology: Plasmids containing wild-type and mutagenized GABAA receptor subunits were linearized and transcribed in vitro using T3 RNA polymerase (mMessage mMachine T3 kit, Ambion, Austin Tex.). UNC-49B mRNA was injected into Xenopus laevis oocytes at 0.5 μg/μl either alone, or in a mixture with 0.5 μg/μl UNC-49C. […] The injection volume ranged between 27.6 nl to 50.6 nl. […] Cells were voltage clamped at −60 mV. All recordings were performed at room temperature.

X(I267V) = X(I267V) (Caenorhabditis elegans, UniProt G5ECD3, I262F/I267V/M258L/N259Q/N305R/S264A/T257F/V261F); details: at EC50 GABA
Experimental: as §1

X chimera = X chimera (Caenorhabditis elegans, UniProt G5ECD3, I262F/M258L/N259Q/N305R/S264A/T257F/V261F); details: at EC50 GABA
Experimental: as §1

XY chimera [2] = details: XY chimera versus X chimera
Experimental: as §1

Z chimera = Z chimera (Caenorhabditis elegans, UniProt G5ECD3, A281S/E280D/L277I/N259Q/N305R/S282A/V261F); details: at EC50 GABA
Experimental: as §1

XY chimera [3] = target: XY chimera (Caenorhabditis elegans, UniProt G5ECD3, I262F/I265S/I267V/I270L/M258L/N259Q/N305R/S264A/T257F/T269V/V261F/V273I); details: XY chimera; at EC50 GABA
Experimental: as §1

UNC-49B-PS7 = tested on: UNC-49B-PS7
Experimental: as §1

X(I265S) = X(I265S) (Caenorhabditis elegans, UniProt G5ECD3, I262F/I265S/M258L/N259Q/N305R/S264A/T257F/V261F); details: at EC50 GABA
Experimental: as §1

N305R = N305R (Caenorhabditis elegans, UniProt G5ECD3, N305R); details: at EC50 GABA
Experimental: as §1

X(I270L) = X(I270L) (Caenorhabditis elegans, UniProt G5ECD3, I262F/I270L/M258L/N259Q/N305R/S264A/T257F/V261F); details: at EC50 GABA
Experimental: as §1

YZ chimera = YZ chimera (Caenorhabditis elegans, UniProt G5ECD3, A281S/E280D/I265S/I267V/I270L/L277I/N259Q/N305R/S282A/T269V/V261F/V273I); details: at EC50 GABA
Experimental: as §1

[4] = target: double chimera (M1 + linker) (Caenorhabditis elegans, UniProt G5ECD3+G5EE10); details: at EC50 GABA
Sequence of double chimera (M1 + linker) (G5EE10 entry or part of it, change not shown, one chain of several): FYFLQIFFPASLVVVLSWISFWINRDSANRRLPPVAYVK
Experimental: as §1

X(I265S, Q259N) [5] = details: residue 259 reverted to asparagine, versus X(I265S)
Experimental: as §1

M1-M2 chimera = M1-M2 chimera (Caenorhabditis elegans, UniProt G5ECD3+G5EE10); test: Xenopus oocyte two electrode voltage-clamp, GABA-evoked currents; details: 5 μM PS, 1000 μM GABA, versus M1-M2-linker chimera
Sequence of M1-M2 chimera (G5EE10 256-304, change not shown, one chain of several): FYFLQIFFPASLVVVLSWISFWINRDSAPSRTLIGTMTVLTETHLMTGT
Experimental: as §1
The strategy represents a deletion of UNC-49C material from the carboxy to amino terminal end of the transmembrane portion of the subunit, which is then replaced with UNC-49B sequences.

[6] = tested on: UNC-49B homomers containing the M1 mutations; test: Desensitization in oocytes; details: oocytes expressing UNC-49B homomers containing the M1 mutations
Y(M258L) = target: T1, Y(M258L) (Caenorhabditis elegans, UniProt G5ECD3, I265S/I267V/I270L/M258L/N259Q/N305R/T269V/V261F/V273I); details: M258L mutant; median of 1000 bootstrap trials
T1 sequence (G5ECD3 23-506 M258L/N259Q/V261F/I265S/I267V/T269V/I270L/V273I/N305R): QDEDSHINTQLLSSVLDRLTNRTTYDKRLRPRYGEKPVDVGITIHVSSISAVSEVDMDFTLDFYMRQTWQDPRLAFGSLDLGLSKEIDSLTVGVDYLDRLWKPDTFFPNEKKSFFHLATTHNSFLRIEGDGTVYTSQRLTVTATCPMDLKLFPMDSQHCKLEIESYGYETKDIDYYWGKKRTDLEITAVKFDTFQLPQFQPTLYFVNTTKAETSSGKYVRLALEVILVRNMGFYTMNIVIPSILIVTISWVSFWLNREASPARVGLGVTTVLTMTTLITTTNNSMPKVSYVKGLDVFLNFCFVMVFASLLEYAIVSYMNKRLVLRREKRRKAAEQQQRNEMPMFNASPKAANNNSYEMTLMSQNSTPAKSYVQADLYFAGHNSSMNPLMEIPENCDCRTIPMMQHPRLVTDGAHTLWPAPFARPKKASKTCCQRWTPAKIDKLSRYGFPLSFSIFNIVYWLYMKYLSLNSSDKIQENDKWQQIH
Experimental: as §1
(§2) Error bars in the figures are standard error of the mean. All drugs were obtained from Sigma (St. Louis). […] Picrotoxin was prepared as a 100 mM stock in DMSO.
(§3) Important residues in the X segment were tested by substituting UNC-49C residues into the Y chimera. […] These divergent X segment residues were tested by mutating them from UNC-49B to UNC-49C amino acids in the Y chimera background.

Y(M258L/S264A) = target: T2, Y(M258L/S264A) (Caenorhabditis elegans, UniProt G5ECD3, I265S/I267V/I270L/M258L/N259Q/N305R/S264A/T269V/V261F/V273I); details: M258L/S264A mutant; median of 1000 bootstrap trials
T2 sequence (G5ECD3 23-506 M258L/N259Q/V261F/S264A/I265S/I267V/T269V/I270L/V273I/N305R): T1 sequence (G5ECD3 23-506 M258L/N259Q/V261F/I265S/I267V/T269V/I270L/V273I/N305R)
Experimental: as §1, §2, §3

pregnenolone sulfate [PS]
PS Slope coefficient (X(I265S, Q259N) [1]): 0.9 ± 0.0 | PS Slope coefficient (X(I267V)): 1.1 ± 0.05 | PS Slope coefficient (X chimera): 1.0 ± 0.03 | fold increase in PS sensitivity (XY chimera [2]): 3.7 fold | PS Slope coefficient (Z chimera): 1.05 ± 0.03 | PS Slope coefficient (XY chimera [3]): 1.6 ± 0.2 | fold increase in PS sensitivity (UNC-49B-PS7; UNC-49B-PS7 versus UNC-49B subunit): 58 fold | fold difference in PS sensitivity (UNC-49B-PS7; UNC-49B-PS7 versus UNC-49B/C heteromer): 1.4 fold | PS Slope coefficient (X(I265S)): 1.1 ± 0.1 | PS Slope coefficient (N305R): 1.9 ± 0.2 (n = 4) | PS Slope coefficient (X(I270L)): 1.5 ± 0.1 | PS Slope coefficient (YZ chimera): 3.5 ± 1.6 | PS Slope coefficient [4]: 1.4 ± 0.1 (n = 4) | fold reduction in PS sensitivity (X(I265S, Q259N) [5]): 2.2 fold | PS sensitivity (M1-M2 chimera): significantly less PS sensitive | effect of PS on desensitization [6]: accelerated desensitization | A, amplitude of normalized current above 1 (biphasic fit) (Y(M258L)): 1.56 | nE, slope coefficient for the enhancement (Y(M258L)): 1.0 | nI, slope coefficient for the inhibition (Y(M258L)): 1.8 | A, amplitude of normalized current above 1 (biphasic fit) (Y(M258L/S264A)): 1.0 | nE, slope coefficient for the enhancement (Y(M258L/S264A)): 1.3 | nI, slope coefficient for the inhibition (Y(M258L/S264A)): 1 .9
